# “Also recorded” adds a separate entry of the source. Like-named read-outs stand apart in the source and are kept apart here.
# Legend:
# clinical = assay: clinical; parameters: species or system human; conditions: in vivo
# Experimental: The fetal subject assigned to this treatment plan received risdiplam through the carrier after all basic organ systems of the fetal subject had substantially completed fundamental embryogenesis in its third trimester of development in a range of from about thirty-two and a half weeks to its delivery from the carrier at about thirty-eight and a half weeks gestation. During this period, risdiplam was administered to the fetal subject through a carrier treatment cycle in which a single daily dose of 5 mg of risdiplam was administered orally to the carrier of the fetal subject.
# Risdiplam trough drug levels were obtained from the carrier and the subject as the neonatal subject at time points represented in Table 2A and Table 2B from 32.5 weeks gestation prior to administration of risdiplam to the carrier through 43 days post-delivery. The risdiplam drug levels detected in plasma (ng/mL) of the carrier and the neonatal subject were determined by liquid chromatography-tandem mass spectroscopy (LC-MS/MS).
# Since it was determined that a level of the risdiplam in the cord blood of the neonatal subject was less than about 100 ng/mL or about 0.1 mg/L when the neonatal subject was bom, the neonatal treatment cycle was initiated. The neonatal treatment cycle began 8 days after birth (d8) and included administering risdiplam to the neonatal subject at a single daily dose of 0.15 mg/kg.
# In addition, in Table 3, blood samples for risdiplam PK and PD were collected from the carrier prior to the first dose of the risdiplam and 24-hours post- dose of the risdiplam. PK/PD samples were collected from the carrier every two weeks for up to six weeks after delivery to assess risdiplam clearance. At the time of delivery, samples of umbilical cord blood and amniotic fluid were collected to assess risdiplam exposure to the fetal subject in utero. Collection of the cord blood and the amniotic fluid could have also included collection of the cord blood and the amniotic fluid during pregnancy of the carrier if an amniocentesis was deemed to be needed.
# [1] = Treatment emergent adverse events and safety monitoring of carrier, fetal subject and neonatal subject; assay type: in vivo, human; parameters: key to Serious (Y/N) / Study Term (Y/N): “Y” refers to yes; “N” refers to no; conditions: for Adverse Event or MedDRA Term: exposed in utero, oral 0.15 mg/kg from 8 days post-birth, 0.15 mg/kg
# From the text: X1 included routine monitoring of the carrier for the third trimester, specifically with regards to development of hypertension and features of pre-eclampsia or HELLP syndrome, with related blood and urine testing. X1 also included monitoring nausea, vomiting, or dehydration in the carrier and placental integrity and amniotic fluid volume. X1 further included fetal monitoring for fetal growth, organ system development, and fetal well- being and any signs of organ maldevelopment, especially in the brain, heart, kidney, and liver. A baseline pre-treatment full anatomical ultrasound study and growth scan were performed and subsequent ultrasonography occurred at three and six weeks before delivery of the fetal subject as the neonatal subject.
# Also in Table 3, “X2” included safety labs for the carrier, such as the CBC screening, the CMP screening, and the UA, to assess potential toxicity from risdiplam, which were collected before dosing and then prior to delivery. The safety labs were collected at the baseline before dosing, then every 3-4 weeks up to delivery, including pre-operatively prior to the scheduled cesarean section. More frequent testing may occur if clinically indicated.
# In Table 4, the “X5” post-delivery PK/PD collection and safety labs of the neonatal subject included CBC screening, CMP screening, and UA, and such safety labs could be repeated if the results are deemed abnormal as compared to a healthy individual.
# Table 5 summarizes results of the carrier and the fetal subject clinical assessments during the pregnancy of the carrier when exposed to risdiplam and in the neonatal subject for 6 weeks following delivery, for a minimum of 30 days following the last dose of risdiplam.
# Specifically, Table 5 depicts the treatment emergent adverse events, seriousness of the event, intensity of the adverse event, relatedness of the adverse event to administration of the risdiplam, study term, and start and end dates for the adverse event the detected from this Example.
# Each adverse event term is associated with a Medical Dictionary for Regulatory Activity (or MedDRA) term and the intensity is categorized based on the CTCAE grading. In Table 5, “Y” refers to yes and “N” refers to no and the intensity is measured from a lowest level of intensity or “I” to a highest level of intensity or “V.” “VSD” is a ventricular septal defect, “GERD” is gastroesophageal reflux disease, and “NICU” refers to neonatal intensive care unit.
# rabbit fetuses = conditions: cited from earlier work
# [2] = system: FMO1 and FMO3, CYPs 1A1, 2J2, 3A4, and 3A7; conditions: cited from earlier work
# [3] = rodents and rabbits; cited from earlier work
smiles,measurement,setting,value
"Cc1cn2nc(-c3cc(=O)n4cc(N5CCNC6(CC6)C5)ccc4n3)cc(C)c2n1 [risdiplam, 7-(4,7-diazaspiro[2.5]octan-7-yl)-2-(2,8-dimethylimidazo[1,2-b]pyridazin-6-yl)-4H-pyrido[1,2-a]pyrimidin-4-one]",Risdiplam level in amniotic fluid (AF),"clinical; female, human",5.09 ng/mL
same,"Risdiplam level in plasma, venous (V)","clinical; female, human",15.6 ng/mL
same,concentration at 43 d postnatal,"clinical; female, human",0.4 ng/mL
same,Risdiplam level in plasma,"clinical; female, human, 20 d postnatal",0.7 ng/mL
same,Risdiplam level in plasma,"clinical; female, human, 29 d postnatal",0.6 ng/mL
same,Kp,"clinical; female, human, Amniotic fluid risdiplam level relative to carrier plasma venous level",~0.33
same,Kp,"clinical; female, human, Cord venous and arterial plasma risdiplam level relative to carrier plasma level",~0.69
same,Level of risdiplam in cord blood,clinical; human,less than 100 ng/mL
same,"Risdiplam level in cord plasma, arterial (A)",clinical; human,10.4 ng/mL
same,"Risdiplam level in cord plasma, venous (V)",clinical; human,11.2 ng/mL
same,half-life,clinical; human,46 h
same,Risdiplam level in plasma,"clinical; human, 8 d postnatal",0.6 ng/mL
same,concentration at 43 d postnatal,"clinical; human, po, 0.15 mg/kg/day",62 ng/mL
same,Risdiplam trough level in plasma,clinical,BLQ*
same,Placental transfer from carrier to fetal subject,clinical; po,crosses the placenta
same,Serious (Y/N),[1]; carrier adverse events,N
same,Study Term (Y/N),[1]; carrier adverse events,N
same,Overall safety and tolerability,[1]; carrier and subject as fetal and neonatal subject,no drug-related adverse events; also recorded: safe and well tolerated
same,Surveillance labs during pregnancy,[1]; carrier while on risdiplam,normal until proteinuria was detected at 36WG
same,Fetal ultrasound assessments,[1]; fetal subject during carrier treatment,unremarkable
same,Biophysical profiles,"[1]; fetal subject, each time point",normal
same,"CBC, CMP, and U/A",[1]; neonatal subject,normal
same,Study Term (Y/N),[1]; neonatal subject adverse events,N
same,Adverse Event or MedDRA Term,"[1]; neonatal subject, adverse event number 1",Respiratory
same,Adverse Event or MedDRA Term,"[1]; neonatal subject, adverse event number 2",Congenital disorder
same,Adverse Event or MedDRA Term,"[1]; neonatal subject, adverse event number 3",Weight gain
same,Findings in rabbit fetuses,rabbit fetuses; at about 12 mg/kg/day,"hydrocephalus, an abnormally small gall bladder, and lung variations"
same,Findings in rabbit fetuses,rabbit fetuses; dams treated at about 1 mg/kg/day to about 12 mg/kg/day,reduced weight gain and cranium or brain variations
same,Activity of metabolites,[2],inactive
same,Metabolizing enzymes,[2],"primarily metabolized by flavin monooxygenase 1 and 3 (FMO1 and FMO3) and also by CYPs 1A1, 2J2, 3A4, and 3A7"
same,Placental transfer,[3],crosses the placenta

# Reference: patent US20240173325A1, “METHODS FOR TREATING SPINAL MUSCULAR ATROPHY” (Genentech, Inc., priority 2022, published 2024)
